{
  "source": "paper PMC10982999",
  "about": "“Structure-Guided Design and Optimization of Covalent VHL-Targeted Sulfonyl Fluoride PROTACs” (Journal of Medicinal Chemistry, 2024)",
  "target": "T1, AR (AR-HiBiT LNCaP cells) (Homo sapiens, UniProt P10275, T878A)",
  "T1 construct": "host or cells: AR-HiBiT KI LNCaP",
  "T1 sequence (P10275 1-920 T878A)": "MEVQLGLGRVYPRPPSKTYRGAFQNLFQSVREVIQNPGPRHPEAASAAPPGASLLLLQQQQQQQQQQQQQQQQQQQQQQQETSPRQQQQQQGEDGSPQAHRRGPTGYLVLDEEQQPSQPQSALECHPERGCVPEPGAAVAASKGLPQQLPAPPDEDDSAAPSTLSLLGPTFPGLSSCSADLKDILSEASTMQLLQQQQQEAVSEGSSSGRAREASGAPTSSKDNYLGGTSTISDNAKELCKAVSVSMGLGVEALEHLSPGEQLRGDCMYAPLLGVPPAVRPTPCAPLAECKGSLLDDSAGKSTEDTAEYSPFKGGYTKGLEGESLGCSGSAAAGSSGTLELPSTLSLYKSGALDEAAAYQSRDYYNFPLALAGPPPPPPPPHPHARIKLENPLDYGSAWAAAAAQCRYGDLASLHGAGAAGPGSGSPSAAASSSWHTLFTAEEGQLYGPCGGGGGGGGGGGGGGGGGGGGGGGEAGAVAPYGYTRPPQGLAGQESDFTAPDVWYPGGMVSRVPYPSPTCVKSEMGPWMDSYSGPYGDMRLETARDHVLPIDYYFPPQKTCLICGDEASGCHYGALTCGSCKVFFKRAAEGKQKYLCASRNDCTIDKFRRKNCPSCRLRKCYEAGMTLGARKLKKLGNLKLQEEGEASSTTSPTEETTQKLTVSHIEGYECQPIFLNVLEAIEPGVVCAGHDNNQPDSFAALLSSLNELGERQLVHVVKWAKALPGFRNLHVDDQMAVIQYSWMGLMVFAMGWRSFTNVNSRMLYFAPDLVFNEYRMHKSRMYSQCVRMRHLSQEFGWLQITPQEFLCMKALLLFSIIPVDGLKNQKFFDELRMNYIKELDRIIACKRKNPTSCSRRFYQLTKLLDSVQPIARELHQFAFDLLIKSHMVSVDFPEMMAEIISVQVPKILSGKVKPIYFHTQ",
  "experiment": "AR HiBiT degradation assay",
  "assay_type": "cell-based",
  "conditions": "read-out: AR DC50",
  "procedure": "Cellular BRD4/AR HiBiT assay\nThe HiBiT tagged cells were seeded at 10,000 cells per well in a 384-well plate (Thermo Scientific, 164610) at 25 µL per well in DMEM media containing 10% FBS and incubated overnight. Compounds were dispensed using D300e Digital Dispenser (HP) and normalized to 0.1% DMSO. Cells were pre-treated with Epoxomicin or MLN4924 for 3 h before treatment […]\nNano -Glo HiBiT lytic detection assay was performed as described in the manufacturer protocol (Promega). 25 µL of premixed detection reagent was added to each well of the 384 well assay plate and incubated for 15 min on an orbital shaker (at 600 RPM), and luminescence was read using a PHERAstar FS plate reader (BMG Labtech). Corresponding background RLU values were subtracted from DMSO control values and the percentage of protein (%) of were then calculated against […]\nDMSO-treated controls. […]\n1:1000 WB), Tubulin (Sigma #4967S 1:5000 WB).",
  "data": [
    {"smiles": "Cc1cc([C@H](C(=O)N2C[C@H](S(=O)(=O)F)C[C@H]2C(=O)N[C@@H](CC(=O)OC(C)(C)C)c2ccc(-c3scnc3C)cc2)C(C)C)on1", "note": "[VHL-SF2, tert-Butyl (S)-3-((2S,4R)-4-(Fluorosulfonyl)-1-((R)-3-methyl-2-(3-methylisoxazol-5-yl)butanoyl)pyrr-olidine-2-carboxamido)-3-(4-(4-methylthiazol-5-yl)phenyl)propanoate]", "values": [
      {"measurement": "DC50", "value": "> 75", "unit": "µM"}
    ]}
  ]
}
